Reference: patent publication US8993559B2, “Use of ibogamine congeners for treating obesity” (Albany Medical College, priority 2008, dated 2015)

How the values were obtained:
rats = assay: Drug self-administration and water-reinforced responding in rats (earlier studies); assay type: in vivo, rat
Description: Other work has extended the “anti-addictive” effect of 18-MC to oral intake of ethanol. In all cases, these effects last for at least 24 hours. […] Unlike 18-MC, ibogaine and many other iboga alkaloid congeners (approximately 30 tested) decrease responding for water as well as for drugs. And it was precisely this unique specificity that led to development and study of 18-MC.

[1] = active metabolite; cited from earlier work

Compound | responding for drugs (rats; rat, in vivo) | responding for water (non-drug reinforcer) (rats; same doses that decrease drug self-administration) | presence in plasma as metabolite of 18-MC [1]
ibogaine [reference compound] | decrease | decrease | –
COC(=O)[C@@]12C[C@H]3C[C@H](CCO)[C@@H]1N(CCc1c2[nH]c2ccccc12)C3 [18-hydroxycoronaridine] | – | – | present in plasma in low concentrations
